According to patent US11000033B2, “Ketone or oxime compound, and herbicide” (NISSAN CHEMICAL CORPORATION, priority 2014, dated 2021):

Columns and labels:
Assay type in all cases: in vivo
[1] = system: Echinochloa oryzacola Vasing.; assay: Test Example 2: herbicidal activity, application during weed generation in submerged conditions (symbol A); details: Table 23; application herbicide amount 320 g/ha; grade 0-5 by criteria of Test Example 1
Method in brief: (§1)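 Seeds sown in flooded alluvial soil (4 cm water) were grown in a 25-30° C greenhouse. At the one- to two-leaf stage, diluted emulsion of compound was applied to the water surface at a predetermined rate. Effect was scored 3 weeks later.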

Monochoria vaginalis = assay: Test Example 2: herbicidal activity, application during weed generation in submerged conditions (symbol C); details: Table 23; application herbicide amount 320 g/ha; grade 0-5 by criteria of Test Example 1
Method in brief: as §1

[2] = system: Echinochloa crus-galli var. crus-galli; assay: Test Example 3: herbicidal effect by foliage application, Wagner pot (symbol H); details: application herbicide amount 320 g/ha; for H (Echinochloa crus-galli var. crus-galli) herbicidal effect grade: Table 24
Method in brief: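 Plants sown in submerged alluvial soil (water depth 0.1–0.5 cm) in a 25–30 °C greenhouse and grown 14 days. An emulsion of the compound diluted in water to a set herbicide amount was sprayed uniformly on foliage. Effect on each plant scored 3 weeks after application.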

Digitaria ciliaris = assay: Test Example 4: herbicidal effect by soil treatment (symbol F); details: for Herbicidal effect grade, F: Digitaria ciliaris: application herbicide amount 320 g/ha
Method in brief: (§2)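 Seeds were sown in sterilized diluvial soil, covered with about 1.5 cm of soil, and the soil surface was sprayed with a water-diluted emulsion of the compound at a predetermined rate. Plants grew in a greenhouse at 25° C. to 30° C.; effects were scored visually 3 weeks after application.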

Setaria viridis = assay: Test Example 4: herbicidal effect by soil treatment (symbol G); details: for Herbicidal effect grade, G: Setaria viridis: application herbicide amount 320 g/ha
Method in brief: as §2

Lolium multiflorum Lam. = assay: Test Example 4: herbicidal effect by soil treatment (symbol K); details: for Herbicidal effect grade, K: Lolium multiflorum Lam.: application herbicide amount 320 g/ha
Method in brief: as §2

Apera spica-venti [3] = assay: Test Example 4: herbicidal effect by soil treatment (symbol L); details: for Herbicidal effect grade, L: Apera spica-venti: application herbicide amount 320 g/ha
Method in brief: as §2

Abutilon theophrasti [4] = assay: Test Example 4: herbicidal effect by soil treatment (symbol M); details: for Herbicidal effect grade, M: Abutilon theophrasti: application herbicide amount 320 g/ha
Method in brief: as §2

Chenopodium album [5] = assay: Test Example 4: herbicidal effect by soil treatment (symbol O); details: for Herbicidal effect grade, O: Chenopodium album: application herbicide amount 320 g/ha
Source text: Herbicidal Effect Test by Soil Treatment
Sterilized diluvial soil was placed in a plastic box having a length of 21 cm, a width of 13 cm, and a depth of 7 cm. Each of the seeds of Digitaria ciliaris, Setaria viridis, Echinochloa crus-galli var. crus-galli, Avena fatua, Alopecurus myosuroides, Lolium multiflorum Lam., Apera spica-venti, Abutilon theophrasti, Amaranthus retroflexus, Chenopodium album, Stellaria media, Galium spurium, Veronica persica, corn, soybean, rice, wheat, beet, and rapeseed was sowed in a spot-like manner and was covered with the soil of a thickness of about 1.5 cm. Subsequently, the emulsion agent of the compound present invention prepared in accordance with Formulation Example 2 was diluted with water so as to be a predetermined herbicide amount and the diluted emulsion agent was uniformly applied to the surface of the soil with a small-size spray. The plastic box was placed in a greenhouse of 25° C. to 30° C. to grow plant. 3 weeks later from the herbicide application, the effect to each plant was investigated in accordance with the criteria of Test Example 1.

soybean = assay: Test Example 4: effect on crop by soil treatment (symbol d); details: for Effect on crop grade, d: soybean: application herbicide amount 320 g/ha
Method in brief: (§3)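 Steps: fill box with sterilized diluvial soil; sow seed spot-like; cover with ~1.5 cm soil; grow in greenhouse (25° C. to 30° C.).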

beet = assay: Test Example 4: effect on crop by soil treatment (symbol f); details: for Effect on crop grade, f: beet: application herbicide amount 320 g/ha
Method in brief: as §3

Avena fatua = assay: Test Example 5: herbicidal effect by foliage application, plastic box (symbol I); details: 320 g/ha, 3 weeks after application
Method in brief: (§4)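 Seeds were sown in sterilized diluvial soil, covered with about 1.5 cm of soil and grown 14 days in a greenhouse at 25° C. to 30° C. An emulsifiable formulation diluted in water to a set rate was sprayed over foliage, and injury was scored 3 weeks later.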

Apera spica-venti [6] = assay: Test Example 5: herbicidal effect by foliage application, plastic box (symbol L); details: 320 g/ha, 3 weeks after application
Method in brief: as §4

Abutilon theophrasti [7] = assay: Test Example 5: herbicidal effect by foliage application, plastic box (symbol M); details: 320 g/ha, 3 weeks after application
Method in brief: as §4

Chenopodium album [8] = assay: Test Example 5: herbicidal effect by foliage application, plastic box (symbol O); details: 320 g/ha, 3 weeks after application
Method in brief: as §4

Stellaria media = assay: Test Example 5: herbicidal effect by foliage application, plastic box (symbol P); details: 320 g/ha, 3 weeks after application
Method in brief: as §4

Veronica persica = assay: Test Example 5: herbicidal effect by foliage application, plastic box (symbol R); details: 320 g/ha, 3 weeks after application
Method in brief: as §4

rice plant = assay: Test Example 5: effect on crop by foliage application, plastic box (symbol b); details: 320 g/ha, 3 weeks after application
Method in brief: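 Crop and weed seeds sown in spots in sterilized diluvial soil in plastic boxes and covered with about 1.5 cm soil. Plants raised in a greenhouse at 25° C. to 30° C. for foliar application.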

Compound	Herbicidal effect grade, A: Echinochloa oryzacola Vasing. [1]	Herbicidal effect grade, C: Monochoria vaginalis (Monochoria vaginalis)	H (Echinochloa crus-galli var. crus-galli) herbicidal effect grade [2]	Herbicidal effect grade, F: Digitaria ciliaris (Digitaria ciliaris)	Herbicidal effect grade, G: Setaria viridis (Setaria viridis)	Herbicidal effect grade, K: Lolium multiflorum Lam. (Lolium multiflorum Lam.)	Herbicidal effect grade, L: Apera spica-venti (Apera spica-venti [3])	Herbicidal effect grade, M: Abutilon theophrasti (Abutilon theophrasti [4])	Herbicidal effect grade, O: Chenopodium album (Chenopodium album [5])	Effect on crop grade, d: soybean (soybean)	Effect on crop grade, f: beet (beet)	I: Avena fatua, herbicidal effect grade (Avena fatua)	L: Apera spica-venti, herbicidal effect grade (Apera spica-venti [6])	M: Abutilon theophrasti, herbicidal effect grade (Abutilon theophrasti [7])	O: Chenopodium album, herbicidal effect grade (Chenopodium album [8])	P: Stellaria media, herbicidal effect grade (Stellaria media)	R: Veronica persica, herbicidal effect grade (Veronica persica)	b: directly sowed rice plant, effect on crop grade (rice plant)	other results
Cc1cc(Br)cc(C)c1C1=C(O)CC(CC(=O)C2CC2)C1=O (racemic) [10-004]	5 (Herbicidal ratio of 90% or more (almost completely withered))	0 (Herbicidal ratio of 5% or lower (almost no effect))	5 (Herbicidal ratio of 90% or more (almost completely withered))	5 (Herbicidal ratio of 90% or more (almost completely withered))	5 (Herbicidal ratio of 90% or more (almost completely withered))	5 (Herbicidal ratio of 90% or more (almost completely withered))	5 (Herbicidal ratio of 90% or more (almost completely withered))	0 (Herbicidal ratio of 5% or lower (almost no effect))	0 (Herbicidal ratio of 5% or lower (almost no effect))	0 (Herbicidal ratio of 5% or lower (almost no effect))	0 (Herbicidal ratio of 5% or lower (almost no effect))	5 (Herbicidal ratio of 90% or more (almost completely withered))	5 (Herbicidal ratio of 90% or more (almost completely withered))	3 (Herbicidal ratio of 40% or higher and lower than 70%)	0 (Herbicidal ratio of 5% or lower (almost no effect))	0 (Herbicidal ratio of 5% or lower (almost no effect))	3 (Herbicidal ratio of 40% or higher and lower than 70%)	5 (Herbicidal ratio of 90% or more (almost completely withered))	
CON=C(C)CC1CC(OC(=O)c2nsc(Cl)c2Cl)=C(c2c(C)cc(C)cc2C)C1=O (stereo not drawn) [1-099]	4 (Herbicidal ratio of 70% or higher and lower than 90%)	2 (Herbicidal ratio of 20% or higher and lower than 40%)																	herbicidal effect on H (Echinochloa crus-galli var. crus-galli), grade 0-5 [2]: 5 (Herbicidal ratio of 90% or more (almost completely withered)); F: Digitaria ciliaris, herbicidal effect grade (Digitaria ciliaris; 320 g/ha): 5 (Herbicidal ratio of 90% or more (almost completely withered)); G: Setaria viridis, herbicidal effect grade (Setaria viridis; 320 g/ha): 5 (Herbicidal ratio of 90% or more (almost completely withered)); K: Lolium multiflorum Lam., herbicidal effect grade (Lolium multiflorum Lam.; 320 g/ha): 5 (Herbicidal ratio of 90% or more (almost completely withered)); L: Apera spica-venti, herbicidal effect grade (Apera spica-venti [3]; 320 g/ha): 5 (Herbicidal ratio of 90% or more (almost completely withered)); M: Abutilon theophrasti, herbicidal effect grade (Abutilon theophrasti [4]; 320 g/ha): 5 (Herbicidal ratio of 90% or more (almost completely withered)); O: Chenopodium album, herbicidal effect grade (Chenopodium album [5]; 320 g/ha): 0 (Herbicidal ratio of 5% or lower (almost no effect)); d: soybean, effect grade on crop (soybean; 320 g/ha): 3 (Herbicidal ratio of 40% or higher and lower than 70%); f: beet, effect grade on crop (beet; 320 g/ha): 2 (Herbicidal ratio of 20% or higher and lower than 40%); I: Avena fatua, herbicidal effect (criteria 0-5) (Avena fatua): 5 (Herbicidal ratio of 90% or more (almost completely withered)); L: Apera spica-venti, herbicidal effect (criteria 0-5) (Apera spica-venti [6]): 5 (Herbicidal ratio of 90% or more (almost completely withered)); M: Abutilon theophrasti, herbicidal effect (criteria 0-5) (Abutilon theophrasti [7]): 4 (Herbicidal ratio of 70% or higher and lower than 90%); O: Chenopodium album, herbicidal effect (criteria 0-5) (Chenopodium album [8]): 3 (Herbicidal ratio of 40% or higher and lower than 70%); P: Stellaria media, herbicidal effect (criteria 0-5) (Stellaria media): 3 (Herbicidal ratio of 40% or higher and lower than 70%); R: Veronica persica, herbicidal effect (criteria 0-5) (Veronica persica): 3 (Herbicidal ratio of 40% or higher and lower than 70%); b: directly sowed rice plant, effect on crop (criteria 0-5) (rice plant): 5 (Herbicidal ratio of 90% or more (almost completely withered))
CC(CC1CC(O)=C(c2c(C)cc(-n3cc(Cl)cn3)cc2C)C1=O)=NOCC(F)(F)F (stereo not drawn) [9-010]	4 (Herbicidal ratio of 70% or higher and lower than 90%)	1 (Herbicidal ratio of 5% or higher and lower than 20%)	5 (Herbicidal ratio of 90% or more (almost completely withered))	5 (Herbicidal ratio of 90% or more (almost completely withered))	5 (Herbicidal ratio of 90% or more (almost completely withered))	5 (Herbicidal ratio of 90% or more (almost completely withered))	5 (Herbicidal ratio of 90% or more (almost completely withered))	0 (Herbicidal ratio of 5% or lower (almost no effect))	0 (Herbicidal ratio of 5% or lower (almost no effect))	0 (Herbicidal ratio of 5% or lower (almost no effect))	0 (Herbicidal ratio of 5% or lower (almost no effect))	4 (Herbicidal ratio of 70% or higher and lower than 90%)	5 (Herbicidal ratio of 90% or more (almost completely withered))	0 (Herbicidal ratio of 5% or lower (almost no effect))	3 (Herbicidal ratio of 40% or higher and lower than 70%)	3 (Herbicidal ratio of 40% or higher and lower than 70%)	3 (Herbicidal ratio of 40% or higher and lower than 70%)	5 (Herbicidal ratio of 90% or more (almost completely withered))	
CC#Cc1cc(C)c(C2=C(O)CC(CC(C)=NOCC(F)(F)F)C2=O)c(C)c1 (stereo not drawn) [9-011]	5 (Herbicidal ratio of 90% or more (almost completely withered))	4 (Herbicidal ratio of 70% or higher and lower than 90%)	5 (Herbicidal ratio of 90% or more (almost completely withered))	5 (Herbicidal ratio of 90% or more (almost completely withered))	5 (Herbicidal ratio of 90% or more (almost completely withered))	5 (Herbicidal ratio of 90% or more (almost completely withered))	5 (Herbicidal ratio of 90% or more (almost completely withered))	3 (Herbicidal ratio of 40% or higher and lower than 70%)	0 (Herbicidal ratio of 5% or lower (almost no effect))	0 (Herbicidal ratio of 5% or lower (almost no effect))	0 (Herbicidal ratio of 5% or lower (almost no effect))	5 (Herbicidal ratio of 90% or more (almost completely withered))	5 (Herbicidal ratio of 90% or more (almost completely withered))	2 (Herbicidal ratio of 20% or higher and lower than 40%)	1 (Herbicidal ratio of 5% or higher and lower than 20%)	0 (Herbicidal ratio of 5% or lower (almost no effect))	3 (Herbicidal ratio of 40% or higher and lower than 70%)	5 (Herbicidal ratio of 90% or more (almost completely withered))	
